Experiments:
Format in all cases: in vivo
[1] = system: Alopecurus myosuroides (ALOMY); test: Post-emergence herbicidal glasshouse test; conditions: post-emergence (sprayed after 8 days cultivation), evaluated after 13 days, 100=total damage to plant, 0=no damage to plant; for POST Application ALOMY, damage to plant: 1000 g/ha; for pest or weed control at 1000 g/ha: Alopecurus myosuroides, 312 h, read-out: POST Application ALOMY, damage to plant
In short: (§1)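 Pots of SETFA, SOLNI, AMARE and ALOMY sprayed 1 day (pre-) or 8 days (post-emergence) after sowing at 1000 g/ha, formulated in acetone/water (50:50) with 0.5% Tween 20. Glasshouse at 24/16° C day/night, 14 h light, 65% humidity. Damage scored 0–100 after 13 days.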

[2] = system: Amaranthus retoflexus (AMARE); test: Post-emergence herbicidal glasshouse test; conditions: post-emergence (sprayed after 8 days cultivation), evaluated after 13 days, 100=total damage to plant, 0=no damage to plant; for POST Application AMARE, damage to plant: 1000 g/ha; for pest or weed control at 1000 g/ha: Amaranthus retroflexus, 312 h, read-out: POST Application AMARE, damage to plant
In short: as §1

[3] = system: Echinochloa crus-galli (ECHCG); test: Post-emergence herbicidal glasshouse test; conditions: post-emergence (sprayed after 8 days cultivation), evaluated after 13 days, 100=total damage to plant, 0=no damage to plant; for POST Application ECHCG, damage to plant: 1000 g/ha; for pest or weed control at 1000 g/ha: Echinochloa crus-galli, 312 h, read-out: POST Application ECHCG, damage to plant
In short: (§2)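 Damage was rated visually 13 days after treatment on a 0–100 scale, 100 meaning total damage. Pot-grown plants received a 1000 g/ha spray in acetone/water (50:50) containing 0.5% Tween 20, either one day after sowing or after eight days of growth.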

Setaria faberi (SETFA) [4] = test: Post-emergence herbicidal glasshouse test; conditions: post-emergence (sprayed after 8 days cultivation), evaluated after 13 days, 100=total damage to plant, 0=no damage to plant; for POST Application SETFA, damage to plant: 1000 g/ha; for pest or weed control at 1000 g/ha: Setaria faberi, 312 h, read-out: POST Application SETFA, damage to plant
In short: as §1

Solanum nigrum (SOLNI) [5] = test: Post-emergence herbicidal glasshouse test; conditions: post-emergence (sprayed after 8 days cultivation), evaluated after 13 days, 100=total damage to plant, 0=no damage to plant; for POST Application SOLNI, damage to plant: 1000 g/ha; for pest or weed control at 1000 g/ha: Solanum nigrum, 312 h, read-out: POST Application SOLNI, damage to plant
In short: as §1

[6] = system: Alopecurus myosuroides (ALOMY); test: Pre-emergence herbicidal glasshouse test; conditions: pre-emergence (sprayed after one day cultivation), evaluated after 13 days, 100=total damage to plant, 0=no damage to plant; for PRE Application ALOMY, damage to plant: 1000 g/ha; for pest or weed control at 1000 g/ha: Alopecurus myosuroides, 312 h, read-out: PRE Application ALOMY, damage to plant
In short: as §1

[7] = system: Amaranthus retoflexus (AMARE); test: Pre-emergence herbicidal glasshouse test; conditions: pre-emergence (sprayed after one day cultivation), evaluated after 13 days, 100=total damage to plant, 0=no damage to plant; for PRE Application AMARE, damage to plant: 1000 g/ha; for pest or weed control at 1000 g/ha: Amaranthus retroflexus, 312 h, read-out: PRE Application AMARE, damage to plant
In short: as §1

[8] = system: Echinochloa crus-galli (ECHCG); test: Pre-emergence herbicidal glasshouse test; conditions: pre-emergence (sprayed after one day cultivation), evaluated after 13 days, 100=total damage to plant, 0=no damage to plant; for PRE Application ECHCG, damage to plant: 1000 g/ha; for pest or weed control at 1000 g/ha: Echinochloa crus-galli, 312 h, read-out: PRE Application ECHCG, damage to plant
In short: as §2

Setaria faberi (SETFA) [9] = test: Pre-emergence herbicidal glasshouse test; conditions: pre-emergence (sprayed after one day cultivation), evaluated after 13 days, 100=total damage to plant, 0=no damage to plant; for PRE Application SETFA, damage to plant: 1000 g/ha; for pest or weed control at 1000 g/ha: Setaria faberi, 312 h, read-out: PRE Application SETFA, damage to plant
In short: as §1

Solanum nigrum (SOLNI) [10] = test: Pre-emergence herbicidal glasshouse test; conditions: pre-emergence (sprayed after one day cultivation), evaluated after 13 days, 100=total damage to plant, 0=no damage to plant; for PRE Application SOLNI, damage to plant: 1000 g/ha; for pest or weed control at 1000 g/ha: Solanum nigrum, 312 h, read-out: PRE Application SOLNI, damage to plant
In short: as §1

| SMILES | POST Application ALOMY, damage to plant [1] | POST Application AMARE, damage to plant [2] | POST Application ECHCG, damage to plant [3] | POST Application SETFA, damage to plant (Setaria faberi (SETFA) [4]) | POST Application SOLNI, damage to plant (Solanum nigrum (SOLNI) [5]) | PRE Application ALOMY, damage to plant [6] | PRE Application AMARE, damage to plant [7] | PRE Application ECHCG, damage to plant [8] | PRE Application SETFA, damage to plant (Setaria faberi (SETFA) [9]) | PRE Application SOLNI, damage to plant (Solanum nigrum (SOLNI) [10]) | pest or weed control at 1000 g/ha [1] [%] | pest or weed control at 1000 g/ha [2] [%] | pest or weed control at 1000 g/ha [3] [%] | pest or weed control at 1000 g/ha (Setaria faberi (SETFA) [4]) [%] | pest or weed control at 1000 g/ha (Solanum nigrum (SOLNI) [5]) [%] | pest or weed control at 1000 g/ha [6] [%] | pest or weed control at 1000 g/ha [7] [%] | pest or weed control at 1000 g/ha [8] [%] | pest or weed control at 1000 g/ha (Setaria faberi (SETFA) [9]) [%] | pest or weed control at 1000 g/ha (Solanum nigrum (SOLNI) [10]) [%] |
| --- | --- | --- | --- | --- | --- | --- | --- | --- | --- | --- | --- | --- | --- | --- | --- | --- | --- | --- | --- | --- |
| O=C1CCCC(=O)C1C(=O)c1cc2ccc(=O)n(CCC=C(F)F)c2nc1C(F)(F)F [Compound 2.2, 2-{8-(4,4-difluorobut-3-enyl)-7-oxo-7,8-dihydro-2-trifluoromethyl-[1,8]-naphthyridine-3-carbony}-cyclohexane-1,3-dione] | 70 | 100 | 90 | 90 | 100 | 60 | 70 | 90 | 90 | 90 | – | – | – | – | – | – | – | – | – | – |
| N#CCn1c(=O)ccc2cc(C(=O)C3C(=O)CCCC3=O)c(C(F)(F)F)nc21 [Compound 2.3] | 20 | 90 | 80 | 90 | 90 | 20 | 90 | 80 | 60 | 90 | – | – | – | – | – | – | – | – | – | – |
| O=C1CCCC(=O)C1C(=O)c1cc2ccc(=O)n(CC(F)F)c2nc1C(F)(F)F [Compound 2.4, 2-{8-(2,2-difluoroethyl)-7-oxo-7,8-dihydro-2-trifluoromethyl-[1,8]-naphthyridine-3-carbony}-cyclohexane-1,3-dione] | 60 | 60 | 70 | 80 | 90 | 40 | 90 | 90 | 70 | 90 | – | – | – | – | – | – | – | – | – | – |
| O=C(Cn1c(=O)ccc2cc(C(=O)C3C(=O)CCCC3=O)c(C(F)(F)F)nc21)c1ccccc1 [Compound 2.6, 2-{8-(2-phenyl-2-oxo-ethyl)-7-oxo-7,8-dihydro-2-trifluoromethyl-[1,8]-naphthyridine-3-carbony}-cyclohexane-1,3-dione] | 40 | 90 | 70 | 70 | 90 | 20 | 60 | 40 | 10 | 90 | – | – | – | – | – | – | – | – | – | – |
| CC(C)(C)C(=O)Cn1c(=O)ccc2cc(C(=O)C3C(=O)CCCC3=O)c(C(F)(F)F)nc21 [Compound 2.7, 2-{8-(3,3-dimethyl-2-oxo-butyl)-7-oxo-7,8-dihydro-2-trifluoromethyl-[1,8]-naphthyridine-3-carbony}-cyclohexane-1,3-dione] | 40 | 70 | 70 | 70 | 100 | 30 | 60 | 80 | 40 | 100 | – | – | – | – | – | – | – | – | – | – |
| O=C1CCCC(=O)C1C(=O)c1cc2ccc(=O)n(C3CCCC3)c2nc1C(F)(F)F [Compound 2.8, 2-{8-cyclopentyl-7-oxo-7,8-dihydro-2-trifluoromethyl-[1,8]-naphthyridine-3-carbony}-cyclohexane-1,3-dione] | – | – | – | – | – | – | – | – | – | – | 70 | 70 | 80 | 90 | 90 | 30 | 80 | 70 | 70 | 90 |
| O=C1CCCC(=O)C1C(=O)c1cc2ccc(=O)n(CC3CC3)c2nc1C(F)(F)F [Compound 2.9, 2-{8-(cyclopropylmethyl)-7-oxo-7,8-dihydro-2-trifluoromethyl-[1,8]-naphthyridine-3-carbony}-cyclohexane-1,3-dione] | 90 | 100 | 90 | 90 | 90 | 60 | 60 | 100 | 90 | 90 | – | – | – | – | – | – | – | – | – | – |
| CC(C)n1c(=O)ccc2cc(C(=O)C3C(=O)CCCC3=O)c(C(F)(F)F)nc21 [Compound 2.10, 2-{8-isopropyl-7-oxo-7,8-dihydro-2-trifluoromethyl-[1,8]-naphthyridine-3-carbony}-cyclohexane-1,3-dione] | – | – | – | – | – | – | – | – | – | – | 80 | 100 | 90 | 90 | 100 | 50 | 80 | 90 | 80 | 90 |
| O=C1CCCC(=O)C1C(=O)c1cc2ccc(=O)n(CCF)c2nc1C(F)(F)F [Compound 2.11, 2-{8-(2-fluoroethyl)-7-oxo-7,8-dihydro-2-trifluoromethyl-[1,8]-naphthyridine-3-carbony}-cyclohexane-1,3-dione] | 90 | 100 | 90 | 90 | 100 | 40 | 60 | 100 | 90 | 100 | – | – | – | – | – | – | – | – | – | – |
